Assay [1] addresses Trm11–Trm112 complex (Saccharomyces cerevisiae, UniProt Q12463, D291A). The experiment in a line: biochemical.
The target of assay [2] is Trm11–Trm112 complex (Saccharomyces cerevisiae, UniProt Q12463). As to the kind of experiment: biochemical.

Data on one molecule can be found in publication PMC5389515 (Nucleic Acids Research, 2016).

Chain of Trm11–Trm112 complex (Saccharomyces cerevisiae, UniProt Q12463, D291A) (Q12463 whole entry D291A): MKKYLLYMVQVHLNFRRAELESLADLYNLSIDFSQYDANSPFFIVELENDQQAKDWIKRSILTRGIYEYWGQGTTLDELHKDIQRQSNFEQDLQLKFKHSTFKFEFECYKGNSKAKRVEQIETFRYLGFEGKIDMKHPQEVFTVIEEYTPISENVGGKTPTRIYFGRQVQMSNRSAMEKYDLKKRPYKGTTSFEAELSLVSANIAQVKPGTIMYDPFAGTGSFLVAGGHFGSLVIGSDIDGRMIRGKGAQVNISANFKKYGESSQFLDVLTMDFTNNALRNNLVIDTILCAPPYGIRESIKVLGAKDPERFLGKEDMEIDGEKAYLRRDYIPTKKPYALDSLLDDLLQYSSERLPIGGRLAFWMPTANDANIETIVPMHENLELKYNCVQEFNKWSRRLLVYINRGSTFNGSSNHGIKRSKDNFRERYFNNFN
Chain of Trm11–Trm112 complex (Saccharomyces cerevisiae, UniProt Q12463, D291A) (P53738 whole entry partner): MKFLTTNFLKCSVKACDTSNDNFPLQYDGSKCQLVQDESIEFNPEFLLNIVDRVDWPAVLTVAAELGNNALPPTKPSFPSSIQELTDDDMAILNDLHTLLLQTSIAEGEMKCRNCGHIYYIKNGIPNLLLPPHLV
Chain of Trm11–Trm112 complex (Saccharomyces cerevisiae, UniProt Q12463) (Q12463 whole entry): as the sequence (Q12463 whole entry D291A) above, with A291D counted along it
Chain of Trm11–Trm112 complex (Saccharomyces cerevisiae, UniProt Q12463) (P53738 whole entry partner): as the sequence (P53738 whole entry partner) above

As to `C[S+](CC[C@H](N)C(=O)O)C[C@H]1O[C@@H](n2cnc3c(N)ncnc32)[C@H](O)[C@@H]1O` (some centres unmarked) [SAM], the Kd in assay [1] came out at 3400 ± 600 nM; in assay [2], 1900 ± 300 nM.

One may read the Kd as a measure of binding affinity in units of concentration.
